Measurements as given in patent US11512079B2, “Heterocycle substituted pyridine derivative antifungal agents” (Amplyx Pharmaceuticals, Inc., priority 2017, dated 2022).
In brackets after ≈: the same amount, converted by molar mass.

Columns and labels:
Assay type in all cases: cell-based
[1] = system: Candida albicans 90028; test: In vitro antifungal assay (Example IX), microdilution broth, MIC; details: minimum inhibitory concentration (≥50% inhibition), 35° C., 40-48 h, RPMI1640
Summary of the method: (§1)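 CLSI broth microdilution in RPMI1640 with 2.5×10^3 cells/mL and final compound concentrations of 2-0.0019 μg/mL (1% DMSO). C. albicans 90028 plates were incubated at 35° C. for 40-48 h and C. neoformans H99 for 72 h. MIC was read as minimum inhibitory concentration, verified at 600 nm.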

[2] = system: Cryptococcus neoformans H99; test: as above; details: minimum inhibitory concentration (≥50% inhibition), 35° C., 72 h, RPMI1640
Summary of the method: as §1

[3] = system: Aspergillus fumigatus MYA3626; test: In vitro antifungal assay (Example IX), microdilution broth, MEC; details: minimum effective concentration (shortening of hyphae), 35° C., 40-48 h, RPMI1640
Summary of the method: (§2)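 Spore suspensions of A. fumigatus and R. pusillus adjusted to 1-2×10^4 spores/mL in RPMI1640 and exposed to compound dilutions prepared in DMSO, by broth microdilution. MEC taken as the lowest concentration shortening hyphae versus DMSO control wells, read as for echinocandins.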

[4] = system: Rhizomucor pusillus 46342; test: as above; details: minimum effective concentration (shortening of hyphae), 35° C., 40-48 h, RPMI1640
Summary of the method: as §2

[5] = system: Cryptococcus gattii; test: In vitro antifungal assay (Example IX), microdilution broth, MIC; details: minimum inhibitory concentration (≥50% inhibition), 35° C., 72 h (Cryptococcus), RPMI1640
Method: Preparation of Fungal Suspension. C. albicans 90028 and C. neoformans H99 strains were streaked from frozen stocks at −80° C. onto Sabouraud Dextrose Agar (SDA) plates. These were allowed to grow for 24 h (C. albicans) and 48 h (C. neoformans) at 35° C. before using them in the assay. 5-6 individual colonies were picked and diluted into sterile water to obtain a fungal suspension. The cell density of the suspension was determined and the culture diluted with RPMI1640 medium to obtain a fungal suspension of 2.5×10^3 cells/mL. The suspension was used in the MIC measurement as described below.
Preparation of Compound Stocks and Intermediate Dilutions: The compounds were weighed and DMSO was added to prepare a 10 mg/mL stock. The solutions were mixed by vortexing and sonication at 37° C. for 5-10 mins. The resulting solutions were sterile filtered using a PTFE filter, and aliquoted (12 μL or as needed) and stored at −20° C. Intermediate compound dilutions were prepared in sterile polypropylene tubes in 100% DMSO. The compound stock solution was first diluted in DMSO to obtain a concentration of […] to 0.19 μg/mL.
MIC/MEC Measurement: 99 μL 1 of the fungal suspension in RPMI1640 prepared as above was added to each well of a 96-well round bottom assay plate. 1 μL of the intermediate compound dilutions (200-0.19 μg/mL) were added to wells of the plate. This led to a 100-fold dilution of the intermediate dilutions resulting in a final compound concentration of 2-0.0019 μg/mL in the plate. 1 μL of DMSO was added to “No drug” control wells. The solutions were mixed by shaking on a plate shaker for 10 mins and plates incubated at 35° C. for 40-48 h (C. albicans, A. fumigatus, R. pusillus) and 72 h (Cryptococcus). […] This was validated by thorough mixing and reading at 600 nm on a microplate reader. The minimum concentration that led to shortening of hyphae as compared to hyphal growth in DMSO control wells was determined as the minimum effective concentration (MEC) for A. fumigatus and R. pusillus (as read for echinocandins). The use of the MIC and MEC endpoints against yeasts and molds, respectively has been described by Pfaller M A, Duncanson F, Messer S A, Moet G J, Jones R N, Castanheira M. Antimicrob Agents Chemother. 2011. 55(11):5155-8. In vitro activity of a novel broad-spectrum antifungal, E1210, tested against Aspergillus spp. determined by CLSI and EUCAST broth microdilution methods. Results are shown in Table 2, and the letters indicate the following ranges in μg/mL: […]

Row | SMILES | MIC [1] | MIC [2] | minimal effective concentration [3] | minimal effective concentration [4] | MIC [5]
1 | Nc1ncccc1-c1cc(Cc2ccc(OCc3cccc(F)c3)cc2)no1 [Example 138, 3-(3-(4-((3-fluorobenzyl)oxy)benzyl)isoxazol-5-yl)pyridin-2-amine] | 0.01 to 0.1 µg/mL (≈ 0.0266 to 0.266 µM) | 0.01 to 0.1 µg/mL (≈ 0.0266 to 0.266 µM) | 0.01 to 0.1 µg/mL | 0.1 to 1 µg/mL | ≤ 0.01 µg/mL
2 | Nc1ncccc1-c1cc(Cc2ccc(OCc3ccncc3)cc2)no1 [Example 139, 3-(3-(4-(pyridin-4-ylmethoxy)benzyl)isoxazol-5-yl)pyridin-2-amine] | 0.01 to 0.1 µg/mL (≈ 0.0279 to 0.279 µM) | 0.01 to 0.1 µg/mL (≈ 0.0279 to 0.279 µM) | 0.1 to 1 µg/mL | > 1 µg/mL | ≤ 0.01 µg/mL
3 | Nc1ncccc1-c1cc(Cc2ccc(OCc3ccccn3)cc2)no1 [Example 140, 3-(3-(4-(pyridin-2-ylmethoxy)benzyl)isoxazol-5-yl)pyridin-2-amine] | ≤ 0.01 µg/mL | 0.01 to 0.1 µg/mL (≈ 0.0279 to 0.279 µM) | 0.01 to 0.1 µg/mL | 0.1 to 1 µg/mL | 0.01 to 0.1 µg/mL (≈ 0.0279 to 0.279 µM)
4 | Nc1ncccc1-c1cc(Cc2ccc(OCc3ccccc3F)cc2)no1 [Example 141, 3-(3-(4-((2-fluorobenzyl)oxy)benzyl)isoxazol-5-yl)pyridin-2-amine] | 0.01 to 0.1 µg/mL (≈ 0.0266 to 0.266 µM) | 0.01 to 0.1 µg/mL (≈ 0.0266 to 0.266 µM) | 0.01 to 0.1 µg/mL | 0.1 to 1 µg/mL | 0.01 to 0.1 µg/mL (≈ 0.0266 to 0.266 µM)
5 | Nc1ncccc1-c1cc(Cc2ccc(Oc3ccccc3)nc2)no1 [Example 143, 3-(3-((6-phenoxypyridin-3-yl)methyl)isoxazol-5-yl)pyridin-2-amine] | 0.1 to 1 µg/mL (≈ 0.29 to 2.9 µM) | 0.01 to 0.1 µg/mL (≈ 0.029 to 0.29 µM) | 0.01 to 0.1 µg/mL | 0.1 to 1 µg/mL | ≤ 0.01 µg/mL
6 | Nc1ncccc1-c1cc(Cc2ccc(Nc3ccccc3)cc2)no1 [Example 144, 3-(3-(4-(phenylamino)benzyl)isoxazol-5-yl)pyridin-2-amine] | 0.01 to 0.1 µg/mL (≈ 0.0292 to 0.292 µM) | 0.01 to 0.1 µg/mL (≈ 0.0292 to 0.292 µM) | 0.01 to 0.1 µg/mL | 0.1 to 1 µg/mL | 0.01 to 0.1 µg/mL (≈ 0.0292 to 0.292 µM)
7 | Nc1ncccc1-c1cc(Cc2ccnc(OCCc3cccc(F)c3)c2)no1 [Example 146, 3-(3-((2-(3-fluorophenethoxy)pyridin-4-yl)methyl)isoxazol-5-yl)pyridin-2-amine] | 0.1 to 1 µg/mL (≈ 0.256 to 2.56 µM) | 0.1 to 1 µg/mL (≈ 0.256 to 2.56 µM) | > 1 µg/mL | > 1 µg/mL | 0.1 to 1 µg/mL (≈ 0.256 to 2.56 µM)
8 | Nc1ncccc1-c1cc(Cc2ccnc(OCc3ccccc3)c2)no1 [Example 148, 3-(3-((2-(benzyloxy)pyridin-4-yl)methyl)isoxazol-5-yl)pyridin-2-amine] | 0.01 to 0.1 µg/mL (≈ 0.0279 to 0.279 µM) | 0.01 to 0.1 µg/mL (≈ 0.0279 to 0.279 µM) | 0.01 to 0.1 µg/mL | 0.1 to 1 µg/mL | 0.01 to 0.1 µg/mL (≈ 0.0279 to 0.279 µM)
9 | Nc1ncccc1-c1cc(Cc2ccnc(OCc3ccccc3F)c2)no1 [Example 149, 3-(3-((2-((2-fluorobenzyl)oxy)pyridin-4-yl)methyl)isoxazol-5-yl)pyridin-2-amine] | 0.01 to 0.1 µg/mL (≈ 0.0266 to 0.266 µM) | 0.01 to 0.1 µg/mL (≈ 0.0266 to 0.266 µM) | 0.01 to 0.1 µg/mL | > 1 µg/mL | 0.1 to 1 µg/mL (≈ 0.266 to 2.66 µM)
10 | Nc1ncccc1-c1cc(Cc2ccnc(OCC3CC3)c2)no1 [Example 150, 3-(3-((2-(cyclopropylmethoxy)pyridin-4-yl)methyl)isoxazol-5-yl)pyridin-2-amine] | 0.1 to 1 µg/mL (≈ 0.31 to 3.1 µM) | 0.1 to 1 µg/mL (≈ 0.31 to 3.1 µM) | 0.1 to 1 µg/mL | > 1 µg/mL | 0.1 to 1 µg/mL (≈ 0.31 to 3.1 µM)
11 | Nc1ncccc1-c1cc(Cc2ccc(OCc3ccnc(F)c3)nc2)no1 [Example 154, 3-(3-((6-((2-fluoropyridin-4-yl)methoxy)pyridin-3-yl)methyl)isoxazol-5-yl)pyridin-2-amine] | 0.01 to 0.1 µg/mL (≈ 0.0265 to 0.265 µM) | 0.01 to 0.1 µg/mL (≈ 0.0265 to 0.265 µM) | 0.01 to 0.1 µg/mL | 0.1 to 1 µg/mL | 0.01 to 0.1 µg/mL (≈ 0.0265 to 0.265 µM)
12 | Nc1ncccc1-c1cc(Cc2ccc(OCCn3cccn3)nc2)no1 [Example 156, 3-(3-((6-(2-(1H-pyrazol-1-yl)ethoxy)pyridin-3-yl)methyl)isoxazol-5-yl)pyridin-2-amine] | 0.1 to 1 µg/mL (≈ 0.276 to 2.76 µM) | 0.1 to 1 µg/mL (≈ 0.276 to 2.76 µM) | > 1 µg/mL | > 1 µg/mL | > 1 µg/mL
13 | C#CCOc1ccc(Cc2cc(-c3cccnc3N)on2)cn1 [Example 157, 3-(3-((6-(prop-2-yn-1-yloxy)pyridin-3-yl)methyl)isoxazol-5-yl)pyridin-2-amine] | > 1 µg/mL | 0.1 to 1 µg/mL (≈ 0.326 to 3.26 µM) | 0.1 to 1 µg/mL | 0.1 to 1 µg/mL | 0.1 to 1 µg/mL (≈ 0.326 to 3.26 µM)
14 | Nc1ncccc1-c1cc(Cc2ccc(Oc3ccc(F)cc3)nc2)no1 [Example 160, 3-(3-((6-(4-fluorophenoxy)pyridin-3-yl)methyl)isoxazol-5-yl)pyridin-2-amine] | 0.1 to 1 µg/mL (≈ 0.276 to 2.76 µM) | 0.1 to 1 µg/mL (≈ 0.276 to 2.76 µM) | 0.01 to 0.1 µg/mL | 0.1 to 1 µg/mL | 0.1 to 1 µg/mL (≈ 0.276 to 2.76 µM)
15 | Nc1ncccc1-c1cc(Cc2ccc(Oc3cccc(Cl)c3)nc2)no1 [Example 161, 3-(3-((6-(3-chlorophenoxy)pyridin-3-yl)methyl)isoxazol-5-yl)pyridin-2-amine] | 0.01 to 0.1 µg/mL (≈ 0.0264 to 0.264 µM) | 0.01 to 0.1 µg/mL (≈ 0.0264 to 0.264 µM) | 0.01 to 0.1 µg/mL | 0.1 to 1 µg/mL | 0.01 to 0.1 µg/mL (≈ 0.0264 to 0.264 µM)
16 | COc1cc(COc2ccc(Cc3cc(-c4cccnc4N)on3)cn2)ccn1 [Example 165, 3-(3-((6-((2-methoxypyridin-4-yl)methoxy)pyridin-3-yl)methyl)isoxazol-5-yl)pyridin-2-amine] | 0.1 to 1 µg/mL (≈ 0.257 to 2.57 µM) | 0.01 to 0.1 µg/mL (≈ 0.0257 to 0.257 µM) | 0.01 to 0.1 µg/mL | 0.1 to 1 µg/mL | 0.01 to 0.1 µg/mL (≈ 0.0257 to 0.257 µM)
17 | Nc1ncccc1-c1cc(Cc2ccc(COc3ccccc3F)cc2)no1 [Example 168, 3-(3-(4-((2-fluorophenoxy)methyl)benzyl)isoxazol-5-yl)pyridin-2-amine] | 0.01 to 0.1 µg/mL (≈ 0.0266 to 0.266 µM) | 0.1 to 1 µg/mL (≈ 0.266 to 2.66 µM) | 0.01 to 0.1 µg/mL | 0.1 to 1 µg/mL | 0.01 to 0.1 µg/mL (≈ 0.0266 to 0.266 µM)
18 | Nc1ncccc1-c1cc(Cc2ccc(COc3cccc(F)c3)cc2)no1 [Example 169, 3-(3-(4-((3-fluorophenoxy)methyl)benzyl)isoxazol-5-yl)pyridin-2-amine] | 0.01 to 0.1 µg/mL (≈ 0.0266 to 0.266 µM) | 0.01 to 0.1 µg/mL (≈ 0.0266 to 0.266 µM) | 0.01 to 0.1 µg/mL | 0.1 to 1 µg/mL | 0.01 to 0.1 µg/mL (≈ 0.0266 to 0.266 µM)
19 | Nc1ncccc1-c1cc(Cc2ccc(Cn3cccn3)cc2)no1 [compound 1, 3-(3-(4-((1H-pyrazol-1-yl)methyl)benzyl)isoxazol-5-yl)pyridin-2-amine] | 0.01 to 0.1 µg/mL (≈ 0.0302 to 0.302 µM) | 0.1 to 1 µg/mL (≈ 0.302 to 3.02 µM) | 0.1 to 1 µg/mL | > 1 µg/mL | 0.01 to 0.1 µg/mL (≈ 0.0302 to 0.302 µM)
20 | Nc1ncccc1-c1cc(Cc2cnc(Oc3cccc(F)c3)c(F)c2)no1 [compound 256, 3-(3-((5-fluoro-6-(3-fluorophenoxy)pyridin-3-yl)methyl)isoxazol-5-yl)pyridin-2-amine] | 0.01 to 0.1 µg/mL (≈ 0.0263 to 0.263 µM) | 0.1 to 1 µg/mL (≈ 0.263 to 2.63 µM) | 0.1 to 1 µg/mL | – | > 1 µg/mL
21 | Nc1ncccc1-c1cc(Cc2ccc(Oc3ncccn3)c(F)c2)no1 [compound 259, 3-(3-(3-fluoro-4-(pyrimidin-2-yloxy)benzyl)isoxazol-5-yl)pyridin-2-amine] | > 1 µg/mL | 0.1 to 1 µg/mL (≈ 0.275 to 2.75 µM) | 0.01 to 0.1 µg/mL | – | > 1 µg/mL
22 | Nc1ncccc1-c1cc(Cc2cnc(OCc3ccccc3F)c(F)c2)no1 [compound 260, 3-(3-((5-fluoro-6-((2-fluorobenzyl)oxy)pyridin-3-yl)methyl)isoxazol-5-yl)pyridin-2-amine] | 0.1 to 1 µg/mL (≈ 0.254 to 2.54 µM) | 0.1 to 1 µg/mL (≈ 0.254 to 2.54 µM) | 0.1 to 1 µg/mL | – | > 1 µg/mL
